In patent US6706663B2, “Herbicidal 3-heterocyclic substituted benzisothiazole and benzisoxazole compounds” (Wyeth, priority 2000, dated 2004):

What was measured:
[1] = test system: AMBEL (Ambrosia artemisifolia); test: Postemergence herbicidal evaluation; assay type: in vivo, L.; details: postemergence
Procedure, shortened: (§1)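 Seedlings grown for about two weeks were sprayed postemergence and then kept under standard greenhouse care. Injury was rated visually 4–5 weeks after treatment on a 0–9 scale against untreated controls, and ratings from repeat tests were averaged.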

[2] = test system: CASOB (Cassia obtusifolia); test: Postemergence herbicidal evaluation; assay type: in vivo, L.; details: postemergence
Procedure, shortened: as §1

[3] = test system: CHEAL (Chenopodium album); test: Postemergence herbicidal evaluation; assay type: in vivo, L.; details: postemergence
Procedure, shortened: as §1

[4] = test system: TRZAWR (Wheat, Winter, cv Riband); test: Postemergence herbicidal evaluation; assay type: in vivo, Triticum aestivum; details: postemergence
Procedure, shortened: as §1

[5] = test system: ABUTH (Abutilon theophrasti); test: Preemergence herbicidal evaluation; assay type: in vivo, Medic.; details: rated 4-5 weeks after treatment
[6] = test system: GLXMAW (Soybean, Williams); test: Preemergence herbicidal evaluation; assay type: in vivo, Glycine max, (L.) Merr. cv Williams; details: rated 4-5 weeks after treatment
[7] = test system: TRZAWR (Wheat, Winter, cv Riband); test: Preemergence herbicidal evaluation; assay type: in vivo, Triticum aestivum; details: rated 4-5 weeks after treatment
Procedure, shortened: (§2)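 Each species was sown separately in potting soil over roughly one inch of soil, and the surface sprayed with compound dissolved in aqueous acetone. Assessment used a 0–9 visual scale against a control after four to five weeks.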

[8] = test system: ZEAMX (Corn, Field); test: Preemergence herbicidal evaluation; assay type: in vivo, Zea mays, L.; details: rated 4-5 weeks after treatment
[9] = test system: CYPSE (Cyperus serotinus); test: Flooded paddy, preemergence weed control; assay type: in vivo, Rottb.; details: rated 3-4 weeks after treatment, 0-9 rating scale
Procedure, shortened: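 Herbicidal effect was scored visually on a 0–9 scale against an untreated control 3–4 weeks after treatment. Compounds were applied preemergence as 50/50 v/v aqueous/acetone mixtures into flood water (1.5–3 cm deep over silt loam), at roughly 0.0080 to 0.1250 kg/ha active ingredient.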

[10] = test system: GALAP (Galium aparine); test: Preemergence herbicidal evaluation; assay type: in vivo; details: rated 4-5 weeks after treatment
Procedure, shortened: as §2

SMILES | AMBEL herbicidal rating ([1]; rate 0.0320 kg/ha) | AMBEL herbicidal rating ([1]; rate 0.0620 kg/ha) | CASOB herbicidal rating ([2]; rate 0.0320 kg/ha) | CASOB herbicidal rating ([2]; rate 0.0620 kg/ha) | CHEAL herbicidal rating ([3]; rate 0.0320 kg/ha) | CHEAL herbicidal rating ([3]; rate 0.0620 kg/ha) | TRZAWR herbicidal rating ([4]; rate 0.0320 kg/ha) | TRZAWR herbicidal rating ([4]; rate 0.0620 kg/ha) | Preemergence herbicidal rating ABUTH ([5]; Rate 0.0620 kg/ha) | Preemergence herbicidal rating ABUTH ([5]; Rate 0.1250 kg/ha) | Preemergence herbicidal rating ABUTH ([5]; Rate 0.2500 kg/ha) | Preemergence herbicidal rating GLXMAW ([6]; Rate 0.0620 kg/ha) | Preemergence herbicidal rating GLXMAW ([6]; Rate 0.1250 kg/ha) | Preemergence herbicidal rating GLXMAW ([6]; Rate 0.2500 kg/ha) | Preemergence herbicidal rating TRZAWR ([7]; Rate 0.0620 kg/ha) | Preemergence herbicidal rating TRZAWR ([7]; Rate 0.1250 kg/ha) | Preemergence herbicidal rating TRZAWR ([7]; Rate 0.2500 kg/ha) | Preemergence herbicidal rating ZEAMX ([8]; Rate 0.0620 kg/ha) | Preemergence herbicidal rating ZEAMX ([8]; Rate 0.1250 kg/ha) | Preemergence herbicidal rating ZEAMX ([8]; Rate 0.2500 kg/ha) | other results
C[C@@H]1C[C@H](C)OC(c2nsc3ccc(-n4c(=O)cc(C(F)(F)F)n(C)c4=O)cc23)O1 (stereo partly drawn) [Compound 50, 3-[3-[(4R,6S)-4,6-dimethyl-m-dioxan-2-yl]-1,2-benzisothiazol-5-yl]-1-methyl-6-(trifluoromethyl)uracil] | 9.0 | 9.0 | 5.0 | 5.0 | 8.0 | 9.0 | 4.5 | 4.5 | 9.0 | 9.0 | 9.0 | 7.5 | 9.0 | 8.0 | 7.0 | 8.0 | 9.0 | 9.0 | 9.0 | 9.0 | herbicidal rating, CYPSE ([9]; rate 0.0320 kg/ha): 5.0; herbicidal rating, CYPSE ([9]; rate 0.1250 kg/ha): 7.0
CC(C)C1COC(c2nsc3ccc(-n4c(=O)cc(C(F)(F)F)n(C)c4=O)cc23)=N1 (stereo not shown) [Compound 74, 3-[3-(4-isopropyl-2-oxazolin-2-yl)-1,2-benzisothiazol-5-yl]-1-methyl-6-(trifluoromethyl)uracil] | 9.0 | 9.0 | 2.0 | 1.0 | 9.0 | 9.0 | 3.5 | 4.0 | 3.0 | 7.0 | 9.0 | 1.0 | 1.0 | 9.0 | 1.0 | 2.0 | 5.0 | 2.0 | 2.0 | 4.0 | Preemergence herbicidal rating GALAP ([10]; Rate 0.0620 kg/ha): 6.0; Preemergence herbicidal rating GALAP ([10]; Rate 0.1250 kg/ha): 7.0; Preemergence herbicidal rating GALAP ([10]; Rate 0.2500 kg/ha): 9.0
Cn1c(C(F)(F)F)cc(=O)n(-c2cc3c(C4OCCCO4)nsc3cc2F)c1=O [Compound 62, 3-(3-m-dioxan-2-yl-6-fluoro-1,2-benzisothiazol-5-yl)-1-methyl-6-(trifluoromethyl)uracil] | 9.0 | 9.0 | 9.0 | 9.0 | 9.0 | 9.0 | 6.5 | 6.5 | 9.0 | 9.0 | 9.0 | 9.0 | 9.0 | 9.0 | 9.0 | 9.0 | 9.0 | 9.0 | 9.0 | 9.0 | Preemergence herbicidal rating GALAP ([10]; Rate 0.0620 kg/ha): 9.0; Preemergence herbicidal rating GALAP ([10]; Rate 0.1250 kg/ha): 9.0; Preemergence herbicidal rating GALAP ([10]; Rate 0.2500 kg/ha): 9.0
Cn1c(C(F)(F)F)cc(=O)n(-c2ccc3snc(-c4ccco4)c3c2)c1=O [Compound 60, 3-[3-(2-furyl)-1,2-benzisothiazol-5-yl]-1-methyl-6-(trifluoromethyl)uracil] | 9.0 | 9.0 | 1.0 | 4.0 | 6.0 | 5.0 | 4.0 | 4.5 | 5.0 | 5.0 | 9.0 | 1.0 | 3.0 | 4.0 | 1.0 | 4.0 | 6.0 | 3.0 | 5.0 | 6.0 | Preemergence herbicidal rating GALAP ([10]; Rate 0.0620 kg/ha): 6.0; Preemergence herbicidal rating GALAP ([10]; Rate 0.1250 kg/ha): 7.0; Preemergence herbicidal rating GALAP ([10]; Rate 0.2500 kg/ha): 9.0
CCCC1COC(c2nsc3ccc(-n4c(=O)cc(C(F)(F)F)n(C)c4=O)cc23)O1 (stereo not shown) [Compound 77, 1-methyl-3-[3-(4-propyl-1,3-dioxolan-2-yl)-1,2-benzisothiazol-5-yl]-6-(trifluoromethyl)uracil] | 9.0 | 9.0 | 4.0 | 6.0 | 9.0 | 9.0 | 2.0 | 3.5 | 9.0 | 9.0 | 9.0 | 4.0 | 6.0 | 9.0 | 6.0 | 6.0 | 7.0 | 7.0 | 7.5 | 8.5 | Preemergence herbicidal rating GALAP ([10]; Rate 0.1250 kg/ha): 7.0; Preemergence herbicidal rating GALAP ([10]; Rate 0.2500 kg/ha): 9.0
Cn1c(C(F)(F)F)cc(=O)n(-c2ccc3snc(C4=NCCO4)c3c2)c1=O [Compound 75, 1-methyl-3-[3(2-oxazolin-2-yl)-1,2-benzisothiazol-5-yl]-6-(trifluoromethyl)uracil] | 9.0 | 9.0 | 2.0 | 2.0 | 7.0 | 7.0 | 2.0 | 3.5 | 1.0 | 1.0 | 9.0 | 0.0 | 1.0 | 4.0 | 0.0 | 2.0 | 7.0 | 1.0 | 2.0 | 3.0 | Preemergence herbicidal rating GALAP ([10]; Rate 0.0620 kg/ha): 5.0; Preemergence herbicidal rating GALAP ([10]; Rate 0.1250 kg/ha): 7.0; Preemergence herbicidal rating GALAP ([10]; Rate 0.2500 kg/ha): 9.0
Cc1cnn(-c2nsc3ccc(-n4c(=O)cc(C(F)(F)F)n(C)c4=O)cc23)c1 [Compound 59, 1-methyl-3-[3-(4-methylpyrazol-1-yl)-1,2-benzisothiazol-5-yl]-6-(trifluoromethyl)uracil] | 9.0 | 9.0 | 0.0 | 3.0 | 8.0 | 9.0 | 3.0 | 3.5 | 0.0 | 9.0 | 7.0 | 0.0 | 2.0 | 3.0 | 1.0 | 2.0 | 2.0 | 1.0 | 5.0 | 5.0 | AMBEL herbicidal rating ([1]; rate 0.1250 kg/ha): 9.0; CASOB herbicidal rating ([2]; rate 0.1250 kg/ha): 3.0; CHEAL herbicidal rating ([3]; rate 0.1250 kg/ha): 9.0; TRZAWR herbicidal rating ([4]; rate 0.1250 kg/ha): 4.0; Preemergence herbicidal rating GALAP ([10]; Rate 0.0620 kg/ha): 5.0; Preemergence herbicidal rating GALAP ([10]; Rate 0.1250 kg/ha): 5.0; Preemergence herbicidal rating GALAP ([10]; Rate 0.2500 kg/ha): 4.0
